From PMC10700347, “Semisynthesis of 5-O-ester derivatives of renieramycin T and their cytotoxicity against non-small-cell lung cancer cell lines” (Scientific Reports, 2023)

Legend:
Type in all cases: cell-based
[1] = tested on: H292 non-small-cell lung cancer cell line; experiment: cells; conditions: for IC50: Homo sapiens, NCI-H292, H292, MTT, 72 h, read-out: IC50 ± S.D. H292
Description: (§1) The in vitro cytotoxicity of all the semisynthesized esters and their precursors against H292 and H460 human NSCLC cell lines was analyzed based on the mitochondrial dehydrogenase activity via the MTT assay[43] (Table 1). The compounds were tested at doses of 1–250 nM. Cisplatin and doxorubicin, which are the standard chemotherapeutic drugs for the treatment of NSCLC, were used as positive controls. […] However, the extended use of 1 is limited by the concerns for unwanted necrosis, which is an unprogrammed form of cell death caused by the presence of two quinone moieties. […] The IC50 values of the 5-O-ester derivatives 3a, 3b, 3d, 3h, 3i, and 3k were in the same range as the mother compound 1.
(§2) The in vitro cytotoxicity of compounds 3a–3o, 4a, and 4b was determined against the H292 and H460 NSCLC cell lines by the MTT colorimetric assay. Each compound was dissolved in DMSO to prepare a 10 mM stock solution. Both the H292 and H460 cells were cultured in RPMI 1640 medium supplemented with 2 mM L-glutamine, 10% FBS, and 100 units/mL of penicillin–streptomycin at 37 °C under 5% CO2. The NSCLC cells were trypsinized and seeded with a density of 5 × 10^3 cells/well in a 96-well plate, followed by overnight incubation. Serial dilutions of the test compounds ranging from 1 to 250 nM were prepared in the presence of DMSO (< 0.2% v/v). […] After incubation, formazan crystals were solubilized by adding 100 µL of DMSO, and their absorbance was measured at 570 nm by a spectrophotometric microtiter plate reader (PerkinElmer Victor 3 1420 Multilabel Plate Counter). Cell viability was calculated as the percentage of nontreated control cells. The mean IC50 values were obtained from three independent experiments. Each experiment was conducted in triplicate with at least five concentrations of the tested compounds. The GraphPad Prism software (version 5) was used to calculate the average IC50 and standard deviation (S.D.) values for each experiment. Cisplatin and doxorubicin were used as the positive controls, while 0.2% DMSO served as the negative control.

[2] = tested on: H460 non-small-cell lung cancer cell line; experiment: cells; conditions: for IC50: Homo sapiens, NCI-H460, H460, MTT, 72 h, read-out: IC50 ± S.D. H460
Description: as §1, §2

[3] = tested on: dermal papilla (DP) cell line; experiment: MTT cell viability on normal cell line DP; conditions: 72 h
Description: (§3) DP and BEAS-2B were seeded into 96-well plates at densities of 1 × 10^4 cells per well, while HaCaT cells were seeded at densities of 5 × 10^3 cells per well. The cells were allowed to adhere for 24 h. Subsequently, the cells were treated with various concentrations of compounds 3a–3o, 4a, and 4b at 72 h for DP cells and at 24 h for HaCaT and BEAS-2B cells. After the treatment period, cells were incubated with 0.5 mg/ml of MTT for 2 h. The resulting MTT product was measured at 570 nm using a spectrophotometric microplate reader. Cell viability was calculated by comparing the optical density (OD) measurements to those of the untreated control, and the results were expressed as a percentage.

[4] = tested on: human keratinocyte (HaCaT) cell line; experiment: MTT cell viability on normal cell line HaCaT; conditions: Homo sapiens, 24 h, read-out: IC50 ± S.D. HaCaT
Description: as §3

[5] = tested on: non-tumorigenic bronchial epithelial (BEAS-2B) cell line; experiment: MTT cell viability on normal cell line BEAS-2B; conditions: Homo sapiens, BEAS-2B normal cell line, 24 h, read-out: IC50 ± S.D. BEAS-2B
Description: as §3

SMILES | Reduction in cytotoxicity against H292 [1] [fold] | IC50 [1] [nM] | Reduction in cytotoxicity against H460 [2] | IC50 [2] [nM] | IC50 [3] [nM] | IC50 [4] [nM] | IC50 [5] [nM]
C/C=C(/C)C(=O)OC[C@H]1C2=C(C[C@H]3[C@H]4C5=C(C[C@@H]([C@H](C#N)N13)N4C)C(=O)C(C)=C(OC)C5=O)C(=O)C(C)=C(OC(=O)c1cccnc1)C2=O [Compound 4b, 7-O-(3-pyridinecarbonyl) ester derivative of renieramycin S] | 3 | 100 ± 1.59 | fivefold | 104 ± 2.2 | 67.5 ± 5.46 | 192 ± 22.2 | > 250
C/C=C(/C)C(=O)OC[C@H]1c2c(c(OC(=O)c3cnc4ccccc4c3)c(C)c3c2OCO3)C[C@H]2[C@H]3C4=C(C[C@@H]([C@H](C#N)N12)N3C)C(=O)C(C)=C(OC)C4=O [Compound 3j, 5-O-(3-quinolinecarbonyl) ester] |  | 77.8 ± 5.79 |  | 86.1 ± 6.34 | 37.6 ± 0.47 | 109 ± 7.38 | > 250
C/C=C(/C)C(=O)OC[C@H]1C2=C(C[C@H]3[C@H]4C5=C(C[C@@H]([C@H](C#N)N13)N4C)C(=O)C(C)=C(OC)C5=O)C(=O)C(C)=C(OC(=O)CC)C2=O [Compound 4a, 7-O-(propanoyl) ester derivative of renieramycin S] | 3 | 99.87 ± 0.91 | fivefold | 164 ± 4.16 | 77.4 ± 9.9 | 230 ± 22.7 | > 250
CC=C(C)C(=O)OCC1c2c(c(O)c(C)c3c2OCO3)CC2C3C4=C(CC(C(C#N)N12)N3C)C(=O)C(C)=C(OC)C4=O (stereo not shown) [Compound 2, renieramycin T] |  | 72.8 ± 2.88 |  | 84 ± 3.63 | 51 ± 0.08 | 89.2 ± 4.29 | 163 ± 24.2
C/C=C(/C)C(=O)OC[C@H]1c2c(c(OC(=O)[C@H](Cc3ccccc3)NC(=O)OC(C)(C)C)c(C)c3c2OCO3)C[C@H]2[C@H]3C4=C(C[C@@H]([C@H](C#N)N12)N3C)C(=O)C(C)=C(OC)C4=O [Compound 3f] |  | 54.1 ± 4.78 |  | 50.7 ± 3.5 | 39.8 ± 9.88 | 61.2 ± 3.43 | 181 ± 12.1
C/C=C(/C)C(=O)OC[C@H]1c2c(c(OC(=O)c3ccccn3)c(C)c3c2OCO3)C[C@H]2[C@H]3C4=C(C[C@@H]([C@H](C#N)N12)N3C)C(=O)C(C)=C(OC)C4=O [Compound 3g] |  | 51.5 ± 1.67 |  | 43.6 ± 1.36 | 35.2 ± 4.13 | 74.3 ± 6.88 | > 250
C/C=C(/C)C(=O)OC[C@H]1c2c(c(OC(=O)c3cccs3)c(C)c3c2OCO3)C[C@H]2[C@H]3C4=C(C[C@@H]([C@H](C#N)N12)N3C)C(=O)C(C)=C(OC)C4=O [Compound 3n, 5-O-(2-thiophenecarbonyl) ester] |  | 137 ± 6.3 |  | 123 ± 4.99 | 68.6 ± 6.25 | 139 ± 6.16 | > 250
COc1cccc2c1C(=O)c1c(O)c3c(c(O)c1C2=O)C[C@@](O)(C(=O)CO)C[C@@H]3O[C@H]1C[C@H](N)[C@H](O)[C@H](C)O1 [Doxorubicin, reference compound] |  | 40.8 ± 6.89 |  | 43.9 ± 6.26 | 58 ± 24.4 | 915 ± 50.2 | 663
C/C=C(/C)C(=O)OC[C@H]1c2c(c(OC(=O)CNC(=O)OC(C)(C)C)c(C)c3c2OCO3)C[C@H]2[C@H]3C4=C(C[C@@H]([C@H](C#N)N12)N3C)C(=O)C(C)=C(OC)C4=O [Compound 3c] |  | 39 ± 5.63 |  | 41.6 ± 4.15 | 5.35 ± 0.27 | 23.1 ± 1.38 | > 250
